Experimental data taken from US8552208B2, “Analogs of tetramic acid” (University of Tennesseee Research Foundation, priority 2007, dated 2013).
Values after ≈ are worked out from the molar mass of the structure shown. Values joined by “and” are separate entries in the source; they are usually repeats but may differ in a detail not shown here. Identical values can stand only once. Like-named read-outs stand apart in the source and are kept apart here.

How the values were obtained:
[1] = test system: Mycobacterium tuberculosis H37 Rv; experiment: Antibacterial activity assay (MIC, broth dilution); format: cell-based; details: H37RV, 168 h, read-out: MIC, TB
[2] = test system: Bacillus anthracis Sterne 34F2; experiment: microbe, parasite or virus in culture; format: cell-based; details: STERNE34F2, read-out: MIC, BA
[3] = test system: Bacillus subtilis ATCC 23857; experiment: Antibacterial activity assay (MIC, broth dilution); format: cell-based
[4] = test system: Streptococcus pneumoniae DAW30EC; experiment: Antibacterial activity assay (MIC, broth dilution); format: cell-based; details: read-out: MIC, SPn
[5] = test system: Enterococcus faecalis ATCC 33186; experiment: Antibacterial activity assay (MIC, broth dilution); format: cell-based
[6] = test system: Methicillin Resistant Staphylococcus aureus ATCC 33591; experiment: Antibacterial activity assay (MIC, broth dilution); format: cell-based; details: ATCC 33591 / MRSA, read-out: MIC, MRSA
[7] = test system: Methicillin sensitive Staphylococcus aureus 8325 ATCC 35556; experiment: Antibacterial activity assay (MIC, broth dilution); format: cell-based; details: ATCC 35556 / MSSA, read-out: MIC, MSSA
[8] = test system: Propionibacterium acnes ATCC 6919; experiment: Antibacterial activity assay (MIC, broth dilution); format: cell-based; details: Cutibacterium acnes
[9] = test system: Streptococcus pyogenes ATCC 700294; experiment: Antibacterial activity assay (MIC, broth dilution); format: cell-based
[10] = Cytotoxicity assay (MTT); format: cell-based, monkey; details: monkey, Vero monkey kidney cells (ATCC CCL-81); Vero cells, 72 hours, MTT; read-out: IC50 (Cytotoxicity): Concentration which reduces viability of Vero kidney cells by 50%
Method: (§1) Cytotoxicity assays of drugs of Formula I of Example 3 and of Formula II of Example 5 were performed using the Vero monkey kidney cell line (ATCC, CCL-81). Vero cells were grown in tissue culture flasks in Dulbecco's Modified Eagle's Medium (ATCC) supplemented with 10% fetal bovine serum and maintained in a humidified incubator (37° C., 5% CO2). Cells were removed with a cell scraper, collected by centrifugation and then suspended in fresh medium at ˜10^6 cells/mL. The cell suspensions were dispensed into 96-well microtiter plates (100 μl/well) and incubated for 18 hours at 37° C. before being used for cytotoxicity assays. Test compounds were subsequently added at concentrations ranging from 400-0.024 μg/mL and 0.1% vol/vol of Triton-X 100, which causes 100% death of cells, was included as a control. After incubating cells and compounds for 72 hours in humid air (37° C., 5% CO2) the cytopathic effects of compounds were determined using the MTT Cell Proliferation Assay (ATCC, Cat No. 30-1010K). The MTT solution reagent (10 μl) was added to each well and plates incubated at 37° C. until sufficient purple color development occurred in cells (3 hours). After detergent cell lysis, the purple formazan product was measured at 570 nm in a Synergy HT Biotek microplate reader. IC50 data was obtained from dose response curves plotted from percentage activity versus log10 concentration using Graphpad prism 5.

[11] = test system: Vero monkey kidney cell line (ATCC, CCL-81); experiment: Cytotoxicity assay (MTT); format: cell-based; details: IC50 divided by MIC against S. aureus 8325
Method: as §1

[12] = test system: clinical isolates of MRSA (methicillin resistant S. aureus); format: cell-based
[13] = test system: clinical isolates of MSSA (methicillin sensitive S. aureus); format: cell-based
[14] = test system: MRSA (ATCC 35391) biofilm; experiment: Calgary Biofilm Device anti-biofilm activity; format: cell-based, Staphylococcus aureus; details: Staphylococcus aureus, triplicate runs listed singly; for MIC: read-out: MBIC = Minimum Biofilm Inhibitory Concentration
[15] = test system: S. epidermidis (RP62A) biofilm; experiment: Calgary Biofilm Device anti-biofilm activity; format: cell-based; details: Staphylococcus epidermidis, S. epidermidis biofilm, triplicate runs listed singly; for MBC: read-out: MBEC = Minimum Biofilm Eradication Concentration; for MIC: read-out: MBIC = Minimum Biofilm Inhibitory Concentration
[16] = test system: MSSA (ATCC 25293) biofilm; experiment: Calgary Biofilm Device anti-biofilm activity; format: cell-based; details: Staphylococcus aureus; for MBC: read-out: MBEC = Minimum Biofilm Eradication Concentration; for MIC: read-out: MBIC = Minimum Biofilm Inhibitory Concentration
[17] = test system: methicillin-sensitive S. aureus ATCC 29213; experiment: Superficial skin infection model in mice; format: in vivo, Balb/c mice; details: topical, twice daily for three days, bacteria in lesions on day 5, placebo 8.15 +/− 0.37
Method: Compounds of the invention were tested for the ability to treat skin infections utilizing an established animal model of skin infection. The superficial skin infection model used in this study was previously developed by Kugelberg et al, “Establishment of a Superficial Skin Infection Model in Mice using Staphylococcus aureus and Streptococcus pyogenes”, Antimicrob. Agents Chemother., 49(8):3435-3441 (2005).
Superficial infections in Balb/c mice (male) were caused by first removing hair from the backs of mice with an electric shaver, followed by dry shaving with a razor and tape stripping with Tensoplast® (BSN Medical Inc., Charlotte, N.C.) adhesive bandage to remove the epidermis, followed by infection with a 5 μl bacterial suspension containing about 10^7 bacterial cells of methicillin-sensitive S. aureus ATCC 29213, a strain from a previous isolate from a human wound infection and used in other murine infection studies. After 4 hours of infection, treatment was started by administering 45-50 mg of ointment containing (i) vehicle hydrophilic petrolatum (placebo) (ii) 2% w/w mupirocin ointment (Bactroban®, GlaxoSmithKline plc., United Kingdom) in vehicle or (iii) 2% tetramic acid analogue of the invention (13b) in vehicle, (iv) 10% tetramic acid analogue of the invention (13b) in vehicle, (v) 2% tetramic acid analogue of the invention (13l) in vehicle, or (vi) 10% tetramic acid analogue of the invention (13l) in vehicle. Treatment was continued for three days with drug application twice daily at 8 hour intervals. On day 5, mice were sacrificed and the numbers of bacteria in lesions were enumerated.
This conclusion stems from statistical analysis of the resulting means by one way ANOVA followed by Tukey's test at P<0.01 with Placebo as the control group. Therefore, the tetramic acid analogues of the invention have the potential to be used clinically for the treatment of skin infections, such as those caused by Staphylococcus aureus.

[18] = test system: Staphylococcus aureus; experiment: Selection of single-step resistant mutants; format: cell-based; details: from a population of 10^10 cells
[19] = MRSA biofilm, read-out: MBEC = Minimum Biofilm Eradication Concentration
[20] = MSSA biofilm, triplicate runs listed singly

Structure (SMILES): C/C(O)=C1\C(=O)[C@H](CC(C)C)N(CC2=CCC3CC2C3(C)C)C1=O (stereo partly drawn) [Compound 13l, (5S,Z)-1-((6,6-dimethylbicyclo[3.1.1]hept-2-en-2-yl)methyl)-3-(1-hydroxyethylidene)-5-isobutylpyrrolidine-2,4-dione]
- MIC ([1]; Mycobacterium tuberculosis): 100 mg/L (≈ 302 µM)
- MIC [2]: 0.8 mg/L (≈ 2.41 µM)
- MIC ([3]; Bacillus subtilis, ATCC23857, read-out: MIC, BS): 1.6 mg/L (≈ 4.83 µM)
- MIC ([4]; Streptococcus pneumoniae, DAW30EC): 50 mg/L (≈ 151 µM)
- MIC ([5]; Enterococcus faecalis, ATCC33186, read-out: MIC, EF): 1.6 mg/L (≈ 4.83 µM)
- MIC [6]: 1.6 mg/L (≈ 4.83 µM)
- MIC ([7]; Staphylococcus aureus): 1.6 mg/L (≈ 4.83 µM)
- MIC ([8]; ATCC6919, read-out: MIC, PA): 0.8 mg/L (≈ 2.41 µM)
- MIC ([9]; Streptococcus pyogenes, ATCC700294, read-out: MIC, SP): 25 mg/L (≈ 75.4 µM)
- IC50 at 72 h [10]: 35.4 mg/L
- IC50/MIC = Selectivity (therapeutic) index [11]: 22.1
- Antibiotic MIC ([12]; isolate MRSA-1): 3.12 mg/L
- Antibiotic MIC ([12]; isolate MRSA-2): 3.12 mg/L
- Antibiotic MIC ([12]; isolate MRSA-3): 3.12 mg/L
- Antibiotic MIC ([12]; isolate MRSA-4): 3.12 mg/L
- Antibiotic MIC ([12]; isolate MRSA-5): 3.12 mg/L
- Antibiotic MIC ([12]; isolate MRSA-6): 3.12 mg/L
- Antibiotic MIC ([12]; isolate MRSA-7): 3.12 mg/L
- Antibiotic MIC ([12]; isolate MRSA-8): 0.4 mg/L
- Antibiotic MIC ([12]; isolate MRSA-9): 3.12 mg/L
- Antibiotic MIC ([12]; isolate MRSA-10): 3.12 mg/L
- Antibiotic MIC [13]: 3.2 mg/L and 1.6 mg/L
- MBC [14, 19]: > 400 mg/L
- MIC ([14]; MRSA biofilm): 1.6 mg/L (≈ 4.83 µM)
- MBC [15]: > 400 mg/L
- MIC [15]: 1.6 mg/L (≈ 4.83 µM)
- MBC [16, 20]: > 400 mg/L
- MIC [16]: 3.12 mg/L (≈ 9.41 µM)
- Mean Bacterial Count (log10) +/− SD ([17]; 2% ointment): 7.67 +/− 0.21 log10
- Mean Bacterial Count (log10) +/− SD ([17]; 10% ointment): 6.51 +/− 0.67 log10

Structure (SMILES): CCCCCCCCCCN1C(=O)/C(=C(/C)O)C(=O)[C@@H]1CC(C)C [Compound 13b, (S,Z)-1-decyl-3-(1-hydroxyethylidene)-5-isobutylpyrrolidine-2,4-dione]
- MIC ([1]; Mycobacterium tuberculosis H37 Rv, […]): 12.5 mg/L (≈ 37 µM)
- MIC [2]: 0.8 mg/L (≈ 2.37 µM)
- MIC ([3]; ATCC23857, Bacillus subtilis ATCC 23857, read-out: MIC, BS): 0.8 mg/L (≈ 2.37 µM)
- MIC ([4]; Streptococcus pneumoniae DAW30EC): 6.25 mg/L (≈ 18.5 µM)
- MIC ([5]; ATCC33186, Enterococcus faecalis ATCC 33186, read-out: MIC, EF): 1.6 mg/L (≈ 4.74 µM)
- MIC [6]: 0.8 mg/L (≈ 2.37 µM)
- MIC ([7]; Methicillin sensitive Staphylococcus aureus 8325 ATCC 35556): 0.4 mg/L (≈ 1.19 µM)
- MIC ([8]; ATCC6919, Propionibacterium acnes ATCC 6919, read-out: MIC, PA): 0.8 mg/L (≈ 2.37 µM)
- MIC ([9]; ATCC700294, Streptococcus pyogenes ATCC 700294, read-out: MIC, SP): 50 mg/L (≈ 148 µM)
- IC50 at 72 h [10]: 14.7 mg/L
- IC50/MIC = Selectivity (therapeutic) index [11]: 36.8
- Antibiotic MIC ([12]; isolate MRSA-1): 0.8 mg/L
- Antibiotic MIC ([12]; isolate MRSA-2): 0.8 mg/L
- Antibiotic MIC ([12]; isolate MRSA-3): 0.8 mg/L
- Antibiotic MIC ([12]; isolate MRSA-4): 0.8 mg/L
- Antibiotic MIC ([12]; isolate MRSA-5): 0.8 mg/L
- Antibiotic MIC ([12]; isolate MRSA-6): 1.6 mg/L
- Antibiotic MIC ([12]; isolate MRSA-7): 0.8 mg/L
- Antibiotic MIC ([12]; isolate MRSA-8): 0.4 mg/L
- Antibiotic MIC ([12]; isolate MRSA-9): 0.8 mg/L
- Antibiotic MIC ([12]; isolate MRSA-10): 0.8 mg/L
- Antibiotic MIC ([13]; isolate MSSA-11): 0.8 mg/L
- Antibiotic MIC ([13]; isolate MSSA-12): 0.4 mg/L
- Antibiotic MIC ([13]; isolate MSSA-13): 0.4 mg/L
- Antibiotic MIC ([13]; isolate MSSA-14): 0.4 mg/L
- Antibiotic MIC ([13]; isolate MSSA-15): 0.4 mg/L
- Antibiotic MIC ([13]; isolate MSSA-16): 0.4 mg/L
- Antibiotic MIC ([13]; isolate MSSA-17): 0.4 mg/L
- Antibiotic MIC ([13]; isolate MSSA-18): 0.4 mg/L
- Antibiotic MIC ([13]; isolate MSSA-19): 0.4 mg/L
- Antibiotic MIC ([13]; isolate MSSA-20): 0.8 mg/L
- MIC ([14]; MRSA biofilm): 0.8 mg/L (≈ 2.37 µM)
- MBC ([14]; read-out: MBEC = Minimum Biofilm Eradication Concentration, MRSA biofilm): 6.25 mg/L (≈ 18.5 µM)
- MBC [15]: 50 mg/L (≈ 148 µM)
- MIC [15]: 0.4 mg/L (≈ 1.19 µM)
- MBC [16, 20]: 100 mg/L (≈ 296 µM)
- MIC [16, 20]: 0.8 mg/L (≈ 2.37 µM)
- Mean Bacterial Count (log10) +/− SD ([17]; 2% ointment): 8.08 +/− 0.28 log10
- Mean Bacterial Count (log10) +/− SD ([17]; 10% ointment): 6.47 +/− 0.58 log10
- single-step mutants resistant to the compound [18]: could not be obtained

Structure (SMILES): C/C(=C\C(=O)OCCCCCCCCC(=O)O)C[C@@H]1OC[C@H](C[C@@H]2O[C@H]2[C@@H](C)[C@H](C)O)[C@@H](O)[C@H]1O [Mupirocin, mupirocin, reference compound]
- MBC [14, 19]: > 400 mg/L
- MIC ([14]; MRSA biofilm): < 0.2 mg/L
- MBC [15]: > 400 mg/L
- MIC [15]: < 0.2 mg/L
- MBC [16, 20]: > 400 mg/L
- MIC [16, 20]: < 0.2 mg/L
- Mean Bacterial Count (log10) +/− SD ([17]; 2% ointment): 5.95 +/− 0.92 log10
